Test [1] deals with T1, Tyrosine-protein kinase JAK3 (Homo sapiens) (UniProt P52333).
T1 sequence (whole entry): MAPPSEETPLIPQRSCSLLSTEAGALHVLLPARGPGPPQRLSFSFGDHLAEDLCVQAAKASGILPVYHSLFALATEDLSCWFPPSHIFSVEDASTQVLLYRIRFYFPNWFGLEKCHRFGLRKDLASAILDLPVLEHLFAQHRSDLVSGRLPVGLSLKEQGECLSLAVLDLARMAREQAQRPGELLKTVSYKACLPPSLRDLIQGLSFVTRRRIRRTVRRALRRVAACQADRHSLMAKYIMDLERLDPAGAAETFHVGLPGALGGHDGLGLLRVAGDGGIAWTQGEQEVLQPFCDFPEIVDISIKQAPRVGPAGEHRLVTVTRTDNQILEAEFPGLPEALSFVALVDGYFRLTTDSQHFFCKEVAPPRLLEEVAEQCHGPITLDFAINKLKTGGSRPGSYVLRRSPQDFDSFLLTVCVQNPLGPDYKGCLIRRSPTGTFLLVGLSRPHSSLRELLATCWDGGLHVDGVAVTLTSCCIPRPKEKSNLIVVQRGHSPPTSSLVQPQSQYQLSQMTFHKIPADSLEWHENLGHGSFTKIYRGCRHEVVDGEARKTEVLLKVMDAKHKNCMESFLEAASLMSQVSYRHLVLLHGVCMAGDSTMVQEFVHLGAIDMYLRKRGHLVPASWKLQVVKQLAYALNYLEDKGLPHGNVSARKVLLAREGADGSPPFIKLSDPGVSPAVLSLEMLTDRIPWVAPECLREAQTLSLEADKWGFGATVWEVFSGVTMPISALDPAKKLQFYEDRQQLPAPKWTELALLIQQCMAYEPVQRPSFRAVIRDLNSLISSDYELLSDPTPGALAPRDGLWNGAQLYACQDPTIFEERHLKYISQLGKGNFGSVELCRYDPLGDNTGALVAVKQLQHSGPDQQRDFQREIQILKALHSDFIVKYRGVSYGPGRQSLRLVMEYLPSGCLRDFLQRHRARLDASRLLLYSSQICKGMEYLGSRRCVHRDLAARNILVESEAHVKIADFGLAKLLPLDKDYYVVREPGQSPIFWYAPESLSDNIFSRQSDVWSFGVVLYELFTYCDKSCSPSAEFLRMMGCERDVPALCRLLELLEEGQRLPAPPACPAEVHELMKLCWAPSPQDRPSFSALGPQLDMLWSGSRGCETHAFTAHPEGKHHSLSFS
The test is described as follows: Inhibition of human JAK3 at 1.82 nM by HotSpot assay relative to control.

Test [2] addresses T2, Serine/threonine-protein kinase BRSK2 (Homo sapiens) (UniProt Q8IWQ3).
T2 sequence (whole entry): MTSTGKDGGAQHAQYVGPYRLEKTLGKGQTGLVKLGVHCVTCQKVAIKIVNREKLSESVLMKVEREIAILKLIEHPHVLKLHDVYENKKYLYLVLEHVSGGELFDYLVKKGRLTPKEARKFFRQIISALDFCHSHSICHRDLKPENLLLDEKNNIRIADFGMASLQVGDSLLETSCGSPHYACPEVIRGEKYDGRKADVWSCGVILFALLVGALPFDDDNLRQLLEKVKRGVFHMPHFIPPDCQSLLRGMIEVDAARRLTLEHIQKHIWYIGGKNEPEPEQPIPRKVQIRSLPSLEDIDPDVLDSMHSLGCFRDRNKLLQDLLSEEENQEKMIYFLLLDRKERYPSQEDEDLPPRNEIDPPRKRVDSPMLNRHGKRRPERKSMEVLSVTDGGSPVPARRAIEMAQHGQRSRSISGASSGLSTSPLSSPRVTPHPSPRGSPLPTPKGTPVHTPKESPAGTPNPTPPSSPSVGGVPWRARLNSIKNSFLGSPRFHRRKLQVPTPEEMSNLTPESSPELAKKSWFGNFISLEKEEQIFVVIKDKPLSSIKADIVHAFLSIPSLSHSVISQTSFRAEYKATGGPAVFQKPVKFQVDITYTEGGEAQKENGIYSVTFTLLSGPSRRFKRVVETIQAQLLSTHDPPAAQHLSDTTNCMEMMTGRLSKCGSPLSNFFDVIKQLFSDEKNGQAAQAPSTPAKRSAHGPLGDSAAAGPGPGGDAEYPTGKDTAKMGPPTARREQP
The test is described as follows: Inhibition of human BRSK2 at 1.82 nM by HotSpot assay relative to control.

In test [3] the target is Myosin light chain kinase, smooth muscle (Homo sapiens) (UniProt Q15746). The test is described as follows: Inhibition of human MYLK at 1.82 nM by HotSpot assay relative to control.
In test [4] the target is Protein-tyrosine kinase 2-beta (Homo sapiens) (UniProt Q14289). The test is described as follows: Inhibition of human PYK2 at 1.82 nM by HotSpot assay relative to control.
For test [5], the target named is Mitogen-activated protein kinase kinase kinase 8 (Homo sapiens) (UniProt P41279). The test is described as follows: Inhibition of human COT1 at 18.6 nM by HotSpot assay relative to control.
The target of test [6] is Leukocyte tyrosine kinase receptor (Homo sapiens) (UniProt P29376). The test is described as follows: Inhibition of human LTK at 18.6 nM by HotSpot assay relative to control.
Test [7] deals with Serine/threonine-protein kinase N1 (Homo sapiens) (UniProt Q16512). The test can be described thus: Inhibition of human PRK1 at 18.6 nM by HotSpot assay relative to control.
The target of test [8] is Hepatocyte growth factor receptor (Homo sapiens) (UniProt P08581). The test can be described thus: Inhibition of human c-MET at 18.6 nM by HotSpot assay relative to control.

Usually inhibition stands for the relative decrease from the control value, in per cent.

Chain of Leukocyte tyrosine kinase receptor (Homo sapiens) (P29376 whole entry): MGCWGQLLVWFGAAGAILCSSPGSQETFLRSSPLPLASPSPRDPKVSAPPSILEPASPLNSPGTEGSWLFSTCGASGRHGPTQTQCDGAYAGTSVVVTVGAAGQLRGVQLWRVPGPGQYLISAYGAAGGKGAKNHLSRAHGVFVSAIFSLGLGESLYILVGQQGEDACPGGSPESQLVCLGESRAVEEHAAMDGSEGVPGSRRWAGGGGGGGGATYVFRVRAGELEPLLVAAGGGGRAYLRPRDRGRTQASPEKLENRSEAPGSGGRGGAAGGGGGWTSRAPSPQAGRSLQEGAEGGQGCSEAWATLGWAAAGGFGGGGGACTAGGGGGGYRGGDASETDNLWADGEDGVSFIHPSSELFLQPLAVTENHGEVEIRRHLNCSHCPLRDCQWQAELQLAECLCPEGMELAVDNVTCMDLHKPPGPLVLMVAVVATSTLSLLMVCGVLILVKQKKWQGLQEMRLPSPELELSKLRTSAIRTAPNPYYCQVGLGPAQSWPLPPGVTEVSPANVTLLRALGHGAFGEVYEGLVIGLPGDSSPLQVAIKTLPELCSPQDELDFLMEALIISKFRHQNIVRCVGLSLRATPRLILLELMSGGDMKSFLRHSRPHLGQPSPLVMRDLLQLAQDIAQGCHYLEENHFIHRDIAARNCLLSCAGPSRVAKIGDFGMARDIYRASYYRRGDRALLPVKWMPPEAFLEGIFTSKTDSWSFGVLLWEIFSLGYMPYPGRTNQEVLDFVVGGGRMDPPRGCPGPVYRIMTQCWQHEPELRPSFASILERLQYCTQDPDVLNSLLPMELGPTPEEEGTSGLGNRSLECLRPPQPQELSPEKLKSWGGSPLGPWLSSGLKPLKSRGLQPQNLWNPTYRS
Chain of Protein-tyrosine kinase 2-beta (Homo sapiens) (Q14289 whole entry, looked up): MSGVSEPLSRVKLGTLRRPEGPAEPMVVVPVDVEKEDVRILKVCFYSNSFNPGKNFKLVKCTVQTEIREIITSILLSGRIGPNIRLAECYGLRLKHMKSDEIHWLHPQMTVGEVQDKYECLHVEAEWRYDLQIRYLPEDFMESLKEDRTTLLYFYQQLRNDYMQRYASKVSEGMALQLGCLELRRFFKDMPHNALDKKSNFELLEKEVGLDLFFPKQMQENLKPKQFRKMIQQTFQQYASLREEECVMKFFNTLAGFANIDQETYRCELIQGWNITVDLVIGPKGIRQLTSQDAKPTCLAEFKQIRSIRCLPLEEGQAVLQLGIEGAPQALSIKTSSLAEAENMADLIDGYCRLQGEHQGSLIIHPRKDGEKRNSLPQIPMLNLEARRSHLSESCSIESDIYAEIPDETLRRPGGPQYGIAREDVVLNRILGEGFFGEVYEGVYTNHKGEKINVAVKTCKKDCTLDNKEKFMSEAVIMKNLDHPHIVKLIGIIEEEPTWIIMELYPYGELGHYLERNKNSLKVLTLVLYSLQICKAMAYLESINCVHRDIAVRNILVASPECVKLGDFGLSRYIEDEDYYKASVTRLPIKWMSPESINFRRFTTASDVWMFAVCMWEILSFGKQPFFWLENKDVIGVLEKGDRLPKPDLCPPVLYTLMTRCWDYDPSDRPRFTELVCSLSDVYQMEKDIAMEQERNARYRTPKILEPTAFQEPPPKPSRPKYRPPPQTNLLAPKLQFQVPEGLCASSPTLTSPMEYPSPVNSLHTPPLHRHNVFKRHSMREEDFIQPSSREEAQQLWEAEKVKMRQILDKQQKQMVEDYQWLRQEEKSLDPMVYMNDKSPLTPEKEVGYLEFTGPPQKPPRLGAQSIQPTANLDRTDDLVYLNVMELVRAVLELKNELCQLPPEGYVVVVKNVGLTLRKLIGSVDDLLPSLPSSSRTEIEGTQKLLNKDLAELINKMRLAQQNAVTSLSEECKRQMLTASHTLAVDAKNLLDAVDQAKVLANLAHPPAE
Chain of Mitogen-activated protein kinase kinase kinase 8 (Homo sapiens) (P41279 whole entry): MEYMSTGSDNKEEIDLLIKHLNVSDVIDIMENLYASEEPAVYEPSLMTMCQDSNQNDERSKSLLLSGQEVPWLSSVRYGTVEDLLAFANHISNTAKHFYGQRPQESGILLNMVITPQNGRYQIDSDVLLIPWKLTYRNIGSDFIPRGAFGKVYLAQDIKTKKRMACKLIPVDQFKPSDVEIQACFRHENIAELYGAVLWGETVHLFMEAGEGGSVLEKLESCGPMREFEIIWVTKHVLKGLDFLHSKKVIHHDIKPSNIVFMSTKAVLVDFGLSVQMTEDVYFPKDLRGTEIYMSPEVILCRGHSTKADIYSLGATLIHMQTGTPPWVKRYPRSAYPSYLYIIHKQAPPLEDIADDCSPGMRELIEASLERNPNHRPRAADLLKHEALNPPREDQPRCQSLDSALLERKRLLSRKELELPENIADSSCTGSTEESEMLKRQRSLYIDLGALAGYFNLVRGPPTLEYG
Chain of Hepatocyte growth factor receptor (Homo sapiens) (P08581 whole entry): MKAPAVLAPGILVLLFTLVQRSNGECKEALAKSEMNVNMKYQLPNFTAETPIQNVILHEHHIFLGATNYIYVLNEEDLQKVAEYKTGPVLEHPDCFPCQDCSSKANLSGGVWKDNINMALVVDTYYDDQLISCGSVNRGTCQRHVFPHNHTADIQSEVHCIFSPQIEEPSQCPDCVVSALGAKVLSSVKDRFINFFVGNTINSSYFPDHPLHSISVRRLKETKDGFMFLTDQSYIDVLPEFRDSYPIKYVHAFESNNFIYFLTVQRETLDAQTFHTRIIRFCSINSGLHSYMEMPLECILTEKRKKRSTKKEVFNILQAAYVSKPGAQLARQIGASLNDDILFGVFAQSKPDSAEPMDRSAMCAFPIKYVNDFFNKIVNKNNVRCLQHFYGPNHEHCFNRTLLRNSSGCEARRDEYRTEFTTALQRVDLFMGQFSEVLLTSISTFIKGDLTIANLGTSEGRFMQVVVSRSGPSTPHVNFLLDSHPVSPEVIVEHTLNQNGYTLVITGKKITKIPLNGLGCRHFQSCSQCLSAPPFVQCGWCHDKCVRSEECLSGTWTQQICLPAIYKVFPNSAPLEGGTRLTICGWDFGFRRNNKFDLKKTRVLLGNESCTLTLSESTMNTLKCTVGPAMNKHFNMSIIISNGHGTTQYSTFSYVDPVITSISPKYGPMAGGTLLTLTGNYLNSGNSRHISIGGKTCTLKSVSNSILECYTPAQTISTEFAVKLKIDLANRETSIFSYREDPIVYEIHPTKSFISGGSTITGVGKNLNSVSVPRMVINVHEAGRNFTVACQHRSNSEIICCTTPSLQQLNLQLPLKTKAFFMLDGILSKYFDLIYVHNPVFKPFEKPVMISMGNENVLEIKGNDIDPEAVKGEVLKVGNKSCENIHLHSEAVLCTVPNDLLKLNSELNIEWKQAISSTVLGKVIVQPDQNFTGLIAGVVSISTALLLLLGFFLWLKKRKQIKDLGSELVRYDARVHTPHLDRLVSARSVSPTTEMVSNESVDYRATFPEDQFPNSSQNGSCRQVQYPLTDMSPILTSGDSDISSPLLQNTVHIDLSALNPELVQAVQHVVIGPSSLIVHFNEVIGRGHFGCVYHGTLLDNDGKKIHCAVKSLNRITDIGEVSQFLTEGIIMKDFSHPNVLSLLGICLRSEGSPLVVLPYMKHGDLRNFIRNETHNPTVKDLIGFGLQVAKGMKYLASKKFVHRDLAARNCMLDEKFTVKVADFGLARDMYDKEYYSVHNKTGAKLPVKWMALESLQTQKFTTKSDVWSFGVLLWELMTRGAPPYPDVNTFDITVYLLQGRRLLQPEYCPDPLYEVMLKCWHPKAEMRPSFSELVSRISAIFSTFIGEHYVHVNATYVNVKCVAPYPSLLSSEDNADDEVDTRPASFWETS
Chain of Serine/threonine-protein kinase N1 (Homo sapiens) (Q16512 2-942 limits assumed): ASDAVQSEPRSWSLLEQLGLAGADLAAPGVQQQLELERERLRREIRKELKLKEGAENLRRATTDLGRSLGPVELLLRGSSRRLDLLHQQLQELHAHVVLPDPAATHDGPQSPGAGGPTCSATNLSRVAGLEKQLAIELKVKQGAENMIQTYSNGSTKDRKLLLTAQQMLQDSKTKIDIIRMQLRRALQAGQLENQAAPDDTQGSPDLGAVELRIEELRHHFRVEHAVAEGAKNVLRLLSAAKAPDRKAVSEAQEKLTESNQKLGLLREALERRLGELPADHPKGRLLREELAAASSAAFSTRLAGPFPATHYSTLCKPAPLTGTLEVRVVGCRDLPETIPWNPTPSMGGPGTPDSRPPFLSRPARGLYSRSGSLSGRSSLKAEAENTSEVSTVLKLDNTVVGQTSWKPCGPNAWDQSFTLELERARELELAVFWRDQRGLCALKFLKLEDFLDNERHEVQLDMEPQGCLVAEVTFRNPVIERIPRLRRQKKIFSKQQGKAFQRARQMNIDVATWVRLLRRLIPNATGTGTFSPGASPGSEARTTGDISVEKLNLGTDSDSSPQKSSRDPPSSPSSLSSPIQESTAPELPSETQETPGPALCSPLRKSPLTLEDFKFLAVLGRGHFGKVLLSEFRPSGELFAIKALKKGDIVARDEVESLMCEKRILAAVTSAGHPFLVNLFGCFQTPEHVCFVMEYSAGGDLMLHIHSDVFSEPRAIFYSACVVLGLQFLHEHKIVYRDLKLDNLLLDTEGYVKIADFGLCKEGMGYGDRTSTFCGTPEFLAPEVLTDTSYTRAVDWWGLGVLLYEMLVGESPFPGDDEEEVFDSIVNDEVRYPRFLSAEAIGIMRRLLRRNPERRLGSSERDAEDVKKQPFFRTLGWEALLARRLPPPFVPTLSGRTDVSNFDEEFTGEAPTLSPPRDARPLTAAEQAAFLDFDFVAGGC

For the molecule `C[C@@]1(C(=O)Nc2ccc(F)nc2)CCCN1c1nc(Nc2cc(C3CC3)n[nH]2)c2cccn2n1`, the inhibition in test [1] was -1.99%; in test [2] it was -3.06%; in test [3], 2.24%; in test [4], 1.81%.
With `C[C@]1(O)C[C@@H](c2nc(-c3ccc4ccc(-c5ccccc5)nc4c3)c3c(N)nccn32)C1`, the inhibition in test [5] was 4.92%; in test [6], -0.44%; in test [7] it was -7.69%; in test [8], -4.38%.

These data come from ChEMBL document CHEMBL5653615 (J Biol Chem, 2013).
